{"source": "patent US20250215071A1", "about": "“Novel Mcl-1 inhibitor and combination of Mcl-1 and a BH3 mimetic, such as a Bcl-2 inhibitor” (NETRIS PHARMA, priority 2022, published 2025)", "key": {"caspase-3": {"system": "caspase-3", "assay": "UNC5B-induced caspase-3 activity in HeLa UNC5B cells", "type": "cell-based, Human", "conditions": "doxycycline 2 μg/mL; 18 hours", "experimental": "Caspase-3 and -9 activity assays were performed as described previously (Paradisi et al., 2013; Paradisi et al., 2009). Briefly, HCT116 and HeLa cells were seeded and treated as for DNA fragmentation assay. Cells were then collected and caspase-3/caspase 9 activity assays were performed using the Caspase-3/Caspase-9 Fluorometric Assay Kit (BioVision, Milpitas, CA, USA), according to the manufacturer's instructions. Caspase activity (activity/min/mg of protein) was calculated from a 1 h kinetic cycle reading on a spectrofluorometer (405 nm/510 nm, Infinite F500, Tecan, Männedorf, Switzerland)."}, "Mcl-1": {"system": "Mcl-1", "assay": "Mcl-1 protein levels by western blot in HeLa UNC5B cells", "type": "cell-based, Human", "conditions": "2 μg/mL Dox", "method": "FIG. 4. UNC5B triggers proteasomal degradation of Mcl-1. (A,B): UNC5B-induced apoptosis requires proteasome activity. Stable Hela cells inducible for UNC5B (HeLa UNC5B) were treated with doxycycline (Dox) at 2 μg/mL, in combination with the indicated doses of the proteasome inhibitors MG132 and bortezomib (BTZ). 18 hours after treatment, apoptosis was measured by DNA fragmentation (A) and caspase-3 activity (B) (n=3-4, **** p<0.0001, ordinary two-way ANOVA with Tukey's multiple comparisons test). Values are given as means±SEM Treatment with proteasome inhibitors was sufficient to strongly reduce apoptosis induction upon UNC5B over-expression. (C): UNC5B triggers Mcl-1 degradation. HeLa UNC5B cells were treated with 2 μg/mL of Dox, in combination with bortezomib (BTZ, 1 μM) and the pan-caspase inhibitor Q-VD-OPh (QVD, 10 µM) inhibitors. 16 hours after treatment, cells were lysed by scraping and sonication in SDS-containing buffer. Protein levels of Mcl-1, Bcl-2 and Bcl-XL, as well as of UNC5B and B-actin, used as housekeeping gene, were evaluated by western blot. […] UNC5B over-expression specifically promoted Mcl-1 protein decrease. […] (D): Mcl-1 degradation induced by UNC5B requires COMMD2/CRL3 complex. HeLa UNC5B cells were transfected with scramble (siCTRL), COMMD2 (siCOMMD2) or RBX1 (siRBX1) siRNAs. […] Protein levels of Mcl-1, UNC5B and Ku80, used as housekeeping protein, were evaluated by western blot. […] Stable HeLa UNC5B cells, constitutively expressing Mcl-1 or empty vector, were treated with doxycycline and apoptosis was evaluated 18 hours later by DNA fragmentation (n=3, ^nsp>0.05, ordinary two-way ANOVA with Sidak's multiple comparisons test). […] Stable HeLa UNC5B cells, constitutively expressing Mcl-1, Bcl-2 or Bcl-XL were treated with Dox and protein levels were evaluated as described in (C). […] 18 hours later, protein levels of Mcl-1, UNC5B and β-actin, used as housekeeping gene, were evaluated by western blot. […] Cells were harvested at the indicated times after CHX treatment, and protein levels were assessed by western blot. […]"}}, "data": [{"smiles": "CC(C)C[C@H](NC(=O)[C@H](Cc1ccccc1)NC(=O)c1cnccn1)B(O)O", "note": "[bortezomib]", "values": [{"measurement": "UNC5B-induced caspase-3 activation", "setting": "caspase-3", "value": "suppressed"}, {"measurement": "degradation of ectopically-expressed Mcl-1", "setting": "Mcl-1; HeLa UNC5B cells constitutively expressing Mcl-1, 18 hours", "value": "restrained the degradation"}, {"measurement": "Mcl-1 protein levels / degradation triggered by UNC5B", "setting": "Mcl-1; endogenous Mcl-1, BTZ 1 μM, QVD 10 µM, 16 hours", "value": "increased but similar Mcl-1 protein levels in both untreated and doxycycline-treated cells"}]}]}
